The values that follow come from ChEMBL document CHEMBL3045087, “Physicochemical interaction of antitumor acridinone derivatives with DNA in view of QSAR studies” (2011).

Assay [1] has as its system DNA. To be noted: Bos taurus.
Description: Binding affinity to Bos taurus (calf) thymus DNA assessed as change in melting temperature at drug to DNA base pair ratio 0.25 M
Assay [2] relates to P388. Put plainly: Antitumor activity against Mus musculus (mouse) P388 cells xenografted in Mus musculus (mouse) assessed as increase in survival time relative to control. The format is functional. Also noted: concentration or dose not given beside the values.

The structures appear in SMILES notation.

As usually defined, the ΔTm is the shift of the melting midpoint relative to a reference. On to `CCN(CC)CCNc1ccc2ncn3c4ccc(C(C)(C)C)cc4c(=O)c1c23`, for which, in assay [1], the ΔTm came to 2.4 °C. In addition, in assay [2], the “Increase in survival time” value was 0%.
On the same counts, the results for `CN(C)CCCNc1ccc2nnn3c4ccc(O)cc4c(=O)c1c23` are 15.1 °C and 165%.
Turning to `CN(C)CCNc1ccc2ncn3c4ccccc4c(=O)c1c23`, the ΔTm in assay [1] was 9.5 °C. In addition, the “Increase in survival time” value in assay [2] was 90%.
With `CCNCCNc1ccc2nnn3c4ccc(O)cc4c(=O)c1c23`, the ΔTm in assay [1] is 7.1 °C. Besides, the “Increase in survival time” value in assay [2] came to 78%.
The corresponding values for `CN(C)CCNc1ccc2nnn3c4ccc(O)cc4c(=O)c1c23` are 13.1 °C and 102%.
For `CCN(CC)CCNc1ccc2nc(C)n3c4ccc(O)cc4c(=O)c1c23`, the ΔTm in assay [1] is 15.3 °C. Also, in assay [2], the “Increase in survival time” value is 185%.
For the compound `CN(C)CCCNc1ccc2ncn3c4ccc(O)cc4c(=O)c1c23`, in assay [1], the ΔTm stood at 3.5 °C. Also, the “Increase in survival time” value in assay [2] is given as 120%.
The corresponding values for `CN(C)CCNc1ccc2nnn3c4ccc(C(C)(C)C)cc4c(=O)c1c23` are 6.8 °C and 0%.
The corresponding values for `CN(C)CCCNc1ccc2ncn3c4ccccc4c(=O)c1c23` are 11.5 °C and 25%.
On the same counts, the results for `Cc1ccc2c(c1)c(=O)c1c(NCCCN(C)C)ccc3nnn2c31` are 11.5 °C and 18%.
In the case of `CN(C)CCN(C)c1ccc2nnn3c4ccc(O)cc4c(=O)c1c23`, the ΔTm in assay [1] stood at 8.1 °C. For the same compound, the “Increase in survival time” value in assay [2] was found to be 10%.
On the same counts, the results for `CN(C)CCCCCNc1ccc2ncn3c4ccccc4c(=O)c1c23` are 9.9 °C and 10%.
On the same counts, the results for `CN(C)CCCCCNc1ccc2ncn3c4ccc(O)cc4c(=O)c1c23` are 13.1 °C and 85%.
On the same counts, the results for `CCN(CC)CCCCCNc1ccc2ncn3c4ccc(C)cc4c(=O)c1c23` are 10.5 °C and 20%.
Turning to `CCN(CC)CCNc1ccc2ncn3c4cc(O)ccc4c(=O)c1c23`, the ΔTm in assay [1] came to 8.3 °C. In assay [2], the “Increase in survival time” value was determined as 27%.
The corresponding values for `CN(C)CCNc1ccc2nnn3c4ccccc4c(=O)c1c23` are 9.1 °C and 77%.
The corresponding values for `CCN(CC)CCNc1ccc2ncn3c4ccccc4c(=O)c1c23` are 7.2 °C and 55%.
On the same counts, the results for `CCN(CC)CCNc1ccc2ncn3c4ccc(OC)cc4c(=O)c1c23` are 11.5 °C and 96%.
With `CN(C)CCNc1ccc2ncn3c4ccc(O)cc4c(=O)c1c23`, the ΔTm in assay [1] was determined as 12.3 °C. Moreover, the “Increase in survival time” value in assay [2] stood at 110%.
The corresponding values for `CCN(CC)CCNc1ccc2ncn3c4ccc(O)cc4c(=O)c1c23` [C-1311] are 13.7 °C and 93%.
